Reference: patent US12404250B2, “PARP inhibitors for treating cancer and asthma” (Oregon Health & Science University, priority 2018, dated 2025)
Values belong to the compound of their own block, whether it stands above or below them.

Tests used:
PARP 1 = PARP 1 (Homo sapiens, UniProt P09874); assay: In vitro IC50, PARP1; type: biochemical; conditions: SEM from a minimum of three dose-response experiments
PARP 2 = PARP 2 (Homo sapiens, UniProt Q9UGN5); assay: In vitro IC50, PARP2; type: biochemical; conditions: SEM from a minimum of three dose-response experiments
PARP 3 = target: T1, PARP 3 (Homo sapiens, UniProt Q9Y6F1); assay: In vitro IC50, PARP3; type: biochemical; conditions: SEM from a minimum of three dose-response experiments
T1 sequence (Q9Y6F1 1-533): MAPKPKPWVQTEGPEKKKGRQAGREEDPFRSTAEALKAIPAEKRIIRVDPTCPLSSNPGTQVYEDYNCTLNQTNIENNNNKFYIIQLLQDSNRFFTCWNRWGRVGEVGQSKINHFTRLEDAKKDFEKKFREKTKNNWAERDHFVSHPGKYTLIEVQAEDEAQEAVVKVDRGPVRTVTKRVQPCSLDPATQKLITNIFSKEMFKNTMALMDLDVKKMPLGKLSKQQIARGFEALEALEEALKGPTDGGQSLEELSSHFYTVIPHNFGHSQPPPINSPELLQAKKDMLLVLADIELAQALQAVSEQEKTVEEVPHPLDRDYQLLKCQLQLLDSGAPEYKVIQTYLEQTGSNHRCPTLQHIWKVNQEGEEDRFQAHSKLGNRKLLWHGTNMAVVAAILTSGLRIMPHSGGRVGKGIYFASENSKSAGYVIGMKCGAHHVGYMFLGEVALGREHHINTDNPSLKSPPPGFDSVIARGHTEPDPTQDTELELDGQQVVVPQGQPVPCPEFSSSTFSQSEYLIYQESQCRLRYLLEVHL

PARP5 bcat = target: T2, PARP5 bcat (Homo sapiens, UniProt Q9H2K2); assay: In vitro IC50, PARP5bcat; type: biochemical; conditions: SEM from a minimum of three dose-response experiments
T2 construct: bcat

PARP10cat = target: T3, PARP10cat (Homo sapiens, UniProt Q53GL7); assay: In vitro IC50, PARP10cat; type: biochemical; conditions: SEM from a minimum of three dose-response experiments
T3 construct: bcat; cat; PARP11
T3 sequence (Q53GL7 806-1025 limits assumed): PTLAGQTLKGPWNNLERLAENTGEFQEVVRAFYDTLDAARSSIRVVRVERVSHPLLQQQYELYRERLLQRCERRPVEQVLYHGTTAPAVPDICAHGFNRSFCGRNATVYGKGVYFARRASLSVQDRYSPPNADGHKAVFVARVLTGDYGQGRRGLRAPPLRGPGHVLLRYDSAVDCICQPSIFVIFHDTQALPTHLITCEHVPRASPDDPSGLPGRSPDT

PARP11 = target: T4, PARP11 (Homo sapiens, UniProt Q9NR21); assay: In vitro IC50, PARP11 (plate assay, MARylation of SRPK2 and NXF1); type: biochemical; conditions: SEM from a minimum of three dose-response experiments
T4 sequence (Q9NR21 1-338): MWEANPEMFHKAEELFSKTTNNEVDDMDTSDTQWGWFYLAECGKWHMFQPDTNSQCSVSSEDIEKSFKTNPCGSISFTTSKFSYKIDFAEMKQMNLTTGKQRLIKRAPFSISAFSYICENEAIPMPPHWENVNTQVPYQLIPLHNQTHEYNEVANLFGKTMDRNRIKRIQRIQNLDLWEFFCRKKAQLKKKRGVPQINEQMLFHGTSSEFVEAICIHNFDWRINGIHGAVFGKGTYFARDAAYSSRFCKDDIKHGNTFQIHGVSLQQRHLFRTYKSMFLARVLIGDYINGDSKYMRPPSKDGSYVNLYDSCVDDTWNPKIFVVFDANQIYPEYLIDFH
From the text: Curves generated using Prism 7 (Graph Pad); error bars indicate ±SEM from at least two replicates.

PARP14 cat-wwe = target: T5, PARP14 cat-wwe (Homo sapiens, UniProt Q460N5); assay: In vitro IC50, PARP14 cat-wwe; type: biochemical; conditions: SEM from a minimum of three dose-response experiments
T5 construct: PARP14 cat-wwe; no borders given for the assay protein
T5 sequence (Q460N5 1523-1801 limits assumed): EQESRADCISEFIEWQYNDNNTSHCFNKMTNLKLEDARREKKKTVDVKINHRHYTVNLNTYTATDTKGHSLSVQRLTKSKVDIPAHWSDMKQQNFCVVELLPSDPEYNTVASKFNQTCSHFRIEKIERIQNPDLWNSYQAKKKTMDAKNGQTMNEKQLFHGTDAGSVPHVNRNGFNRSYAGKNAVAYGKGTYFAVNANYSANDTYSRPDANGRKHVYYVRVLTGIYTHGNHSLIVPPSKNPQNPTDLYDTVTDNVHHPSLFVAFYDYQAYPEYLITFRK

PARP15 cat = target: T6, PARP15 cat (Homo sapiens, UniProt Q460N3); assay: In vitro IC50, PARP15 cat; type: biochemical; conditions: SEM from a minimum of three dose-response experiments
T6 construct: cat-wwe; cat
T6 sequence (Q460N3 482-678 limits assumed): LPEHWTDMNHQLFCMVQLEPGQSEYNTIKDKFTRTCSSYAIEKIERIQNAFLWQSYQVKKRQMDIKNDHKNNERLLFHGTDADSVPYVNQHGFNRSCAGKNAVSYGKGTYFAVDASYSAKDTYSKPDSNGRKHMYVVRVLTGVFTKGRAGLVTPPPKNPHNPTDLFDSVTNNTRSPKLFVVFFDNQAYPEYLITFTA

PARP1/2 = target: T7, PARP1/2 (Homo sapiens, UniProt P09874); assay: H2O2-stimulated PARP1/2 activity in HEK 293T cells (Western blot); type: cell-based; conditions: H2O2 500 μM for 15 min, Western blot with ADPr binding reagent
T7 construct: expressed in transfected cells; host or cells: HEK 293T
T7 sequence (P09874 2-1014): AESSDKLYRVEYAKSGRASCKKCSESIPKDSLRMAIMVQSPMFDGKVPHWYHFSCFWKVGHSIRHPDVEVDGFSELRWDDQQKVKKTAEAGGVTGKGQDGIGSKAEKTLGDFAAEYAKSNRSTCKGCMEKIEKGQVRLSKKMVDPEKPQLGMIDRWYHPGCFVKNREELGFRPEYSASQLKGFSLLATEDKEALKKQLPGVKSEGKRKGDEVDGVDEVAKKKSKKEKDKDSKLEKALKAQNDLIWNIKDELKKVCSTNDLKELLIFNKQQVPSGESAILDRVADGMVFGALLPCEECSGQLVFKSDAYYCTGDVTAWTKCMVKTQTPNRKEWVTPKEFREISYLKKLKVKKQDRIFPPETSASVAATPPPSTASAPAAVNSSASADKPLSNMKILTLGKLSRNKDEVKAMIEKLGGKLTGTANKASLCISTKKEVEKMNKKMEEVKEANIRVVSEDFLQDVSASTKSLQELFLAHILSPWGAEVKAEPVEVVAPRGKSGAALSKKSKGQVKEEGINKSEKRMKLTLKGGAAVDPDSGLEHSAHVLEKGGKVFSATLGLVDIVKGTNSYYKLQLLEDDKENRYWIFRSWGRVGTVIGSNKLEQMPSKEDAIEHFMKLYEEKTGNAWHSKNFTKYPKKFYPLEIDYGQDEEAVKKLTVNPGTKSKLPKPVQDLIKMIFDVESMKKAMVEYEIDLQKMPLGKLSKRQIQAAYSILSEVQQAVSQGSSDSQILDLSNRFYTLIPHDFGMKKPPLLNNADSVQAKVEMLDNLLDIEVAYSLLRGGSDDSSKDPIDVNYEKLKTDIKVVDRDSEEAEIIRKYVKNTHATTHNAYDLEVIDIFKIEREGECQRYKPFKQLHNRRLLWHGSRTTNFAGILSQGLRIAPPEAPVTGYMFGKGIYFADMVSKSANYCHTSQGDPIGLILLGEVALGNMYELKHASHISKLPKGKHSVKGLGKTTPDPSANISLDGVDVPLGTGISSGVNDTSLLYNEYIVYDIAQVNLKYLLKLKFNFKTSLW
Description: Lysates were prepared and PAR/MARylation was analyzed by Western blot with an ADP-ribose (ADPr) binding reagent. Blot was also probed with antibodies for GFP and actin. The band of interest represents auto-PARylated GFP-PARP1. […] Lysates were prepared and PAR/MARylation was analyzed by Western blot with an ADP-ribose (ADPr) binding reagent. Blot was also probed with antibodies for GFP and actin.
Lysates were prepared and PAR/MARylation was analyzed by Western blot with an ADP-ribose (ADPr) binding reagent. Blot was also probed with antibodies for GFP and actin. The band of interest represents auto-PARylated GFP-PARP1.

PARP 1, sequence (P09874 whole entry): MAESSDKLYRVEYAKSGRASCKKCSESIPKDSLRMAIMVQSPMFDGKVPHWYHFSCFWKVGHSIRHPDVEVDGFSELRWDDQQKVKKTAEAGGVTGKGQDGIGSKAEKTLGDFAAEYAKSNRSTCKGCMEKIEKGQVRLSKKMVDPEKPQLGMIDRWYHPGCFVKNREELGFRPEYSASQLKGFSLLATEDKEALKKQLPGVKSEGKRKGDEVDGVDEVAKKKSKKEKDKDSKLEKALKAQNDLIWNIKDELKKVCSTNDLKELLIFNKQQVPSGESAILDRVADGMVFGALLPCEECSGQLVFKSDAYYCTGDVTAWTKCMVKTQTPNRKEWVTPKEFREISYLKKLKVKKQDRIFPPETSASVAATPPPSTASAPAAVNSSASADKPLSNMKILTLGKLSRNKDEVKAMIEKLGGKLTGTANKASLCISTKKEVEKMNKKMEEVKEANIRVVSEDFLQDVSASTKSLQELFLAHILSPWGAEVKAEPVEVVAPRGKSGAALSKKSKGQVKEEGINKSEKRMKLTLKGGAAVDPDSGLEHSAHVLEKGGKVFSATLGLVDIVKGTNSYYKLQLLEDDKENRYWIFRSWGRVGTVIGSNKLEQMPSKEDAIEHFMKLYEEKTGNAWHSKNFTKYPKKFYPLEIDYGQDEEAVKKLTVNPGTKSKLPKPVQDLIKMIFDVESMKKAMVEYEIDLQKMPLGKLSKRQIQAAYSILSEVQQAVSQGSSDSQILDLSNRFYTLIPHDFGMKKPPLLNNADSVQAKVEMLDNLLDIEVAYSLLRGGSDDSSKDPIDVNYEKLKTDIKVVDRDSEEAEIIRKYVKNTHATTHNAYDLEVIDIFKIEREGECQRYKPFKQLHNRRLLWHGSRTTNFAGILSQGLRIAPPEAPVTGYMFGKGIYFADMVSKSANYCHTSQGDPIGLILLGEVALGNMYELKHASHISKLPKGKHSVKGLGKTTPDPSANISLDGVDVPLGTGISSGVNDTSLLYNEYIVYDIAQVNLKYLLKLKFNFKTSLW
T2 sequence (Q9H2K2 959-1164): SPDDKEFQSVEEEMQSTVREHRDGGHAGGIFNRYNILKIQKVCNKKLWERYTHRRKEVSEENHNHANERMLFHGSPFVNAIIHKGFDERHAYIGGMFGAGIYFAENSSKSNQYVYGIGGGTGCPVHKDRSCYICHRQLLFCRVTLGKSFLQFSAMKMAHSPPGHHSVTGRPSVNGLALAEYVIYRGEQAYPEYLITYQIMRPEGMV
PARP 2, sequence (Q9UGN5 whole entry): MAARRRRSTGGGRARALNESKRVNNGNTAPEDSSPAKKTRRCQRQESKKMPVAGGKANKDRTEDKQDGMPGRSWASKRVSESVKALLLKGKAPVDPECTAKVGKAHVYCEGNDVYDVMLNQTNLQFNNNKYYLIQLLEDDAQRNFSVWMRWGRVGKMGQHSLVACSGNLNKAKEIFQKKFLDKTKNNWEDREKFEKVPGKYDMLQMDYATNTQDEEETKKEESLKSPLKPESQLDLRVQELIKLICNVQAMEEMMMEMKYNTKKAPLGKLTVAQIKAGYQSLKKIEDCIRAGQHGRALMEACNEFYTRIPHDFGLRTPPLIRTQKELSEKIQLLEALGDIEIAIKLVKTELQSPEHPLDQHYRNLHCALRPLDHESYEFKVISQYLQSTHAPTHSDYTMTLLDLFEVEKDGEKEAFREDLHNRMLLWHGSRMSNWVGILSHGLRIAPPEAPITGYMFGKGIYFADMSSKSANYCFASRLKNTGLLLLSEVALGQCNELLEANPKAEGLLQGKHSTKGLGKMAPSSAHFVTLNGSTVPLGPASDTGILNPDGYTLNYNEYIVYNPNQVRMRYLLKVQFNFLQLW

Structure (SMILES): Cc1ccc2c(=O)[nH]c(CSc3ncccn3)nc2c1C [ITK1, 7,8-dimethyl-2-((pyrimidin-2-ylthio)methyl)quinazolin-4(3H)-one]
- IC50 (PARP 1): > 30 µM
- IC50 (PARP 2): 17.4 ± 3.3 µM
- IC50 (PARP 3): > 30 µM
- IC50 (PARP5 bcat): > 10 µM
- IC50 (PARP10cat): 19.7 ± 0.95 µM
- IC50 (PARP11): 0.55 ± 0.11 µM
- IC50 (PARP14 cat-wwe): 8.55 ± 0.8 µM
- IC50 (PARP15 cat): > 30 µM

Structure (SMILES): Cc1ccc2c(=O)[nH]c(CSc3ncnc4nc[nH]c34)nc2c1C [ITK2, 2-(((7H-purin-6-yl)thio)methyl)-7,8-dimethylquinazolin-4(3H)-one]
- IC50 (PARP 1): > 30 µM
- IC50 (PARP 2): > 30 µM
- IC50 (PARP 3): > 30 µM
- IC50 (PARP5 bcat): > 10 µM
- IC50 (PARP10cat): 32.8 ± 3.6 µM
- IC50 (PARP11): 4.52 ± 1.4 µM
- IC50 (PARP14 cat-wwe): 7.87 ± 0.2 µM
- IC50 (PARP15 cat): > 30 µM

Structure (SMILES): Cc1ccc2c(=O)[nH]c(CSc3nnc(N)[nH]3)nc2c1C [ITK3, 2-(((5-amino-4H-1,2,4-triazol-3-yl)thio)methyl)-7,8-dimethylquinazolin-4(3H)-one]
- IC50 (PARP 1): > 30 µM
- IC50 (PARP 2): > 30 µM
- IC50 (PARP 3): > 30 µM
- IC50 (PARP5 bcat): > 10 µM
- IC50 (PARP10cat): 27.9 ± 3.9 µM
- IC50 (PARP11): 13.6 ± 1.4 µM
- IC50 (PARP14 cat-wwe): 6.73 ± 1.8 µM
- IC50 (PARP15 cat): > 30 µM

Structure (SMILES): Cc1ccc2c(=O)[nH]c(CSc3ccc(C(=O)O)cc3)nc2c1C [ITK4, 4-(((7,8-dimethyl-4-oxo-3,4-dihydroquinazolin-2-yl)methyl)thio)benzoic acid]
- IC50 (PARP 1): > 30 µM
- IC50 (PARP 2): 8.46 ± 1.4 µM
- IC50 (PARP 3): > 30 µM
- IC50 (PARP5 bcat): > 10 µM
- IC50 (PARP10cat): 9.29 ± 0.2 µM
- IC50 (PARP11): 5.5 ± 0.8 µM
- IC50 (PARP14 cat-wwe): 8.71 ± 0.8 µM
- IC50 (PARP15 cat): 6.85 ± 0.99 µM

Structure (SMILES): C#Cc1ccc2c(=O)[nH]c(CSc3ccc(C(=O)O)cc3)nc2c1C [ITK5, 4-(((7-ethynyl-8-methyl-4-oxo-3,4-dihydroquinazolin-2-yl)methyl)thio)benzoic acid]
- IC50 (PARP 1): > 30 µM
- IC50 (PARP 2): > 30 µM
- IC50 (PARP 3): > 30 µM
- IC50 (PARP5 bcat): > 10 µM
- IC50 (PARP10cat): 5.4 ± 0.17 µM
- IC50 (PARP11): 1.62 ± 0.33 µM
- IC50 (PARP14 cat-wwe): 10.8 ± 0.75 µM
- IC50 (PARP15 cat): 4.03 ± 0.77 µM

- IC50 (PARP11): 3.4 ± 0.5 µM
Structure (SMILES): CNCc1ccc(-c2[nH]c3cc(F)cc4c3c2CCNC4=O)cc1 [Rucaparib, reference compound]

- Inhibition of H2O2-mediated PARP1 PARylation (PARP½ activity) in cells (PARP1/2): completely inhibits
Structure (SMILES): C[C@]1(c2nc3c(C(N)=O)cccc3[nH]2)CCCN1 [veliparib, reference compound]
